Measurements taken from patent US20080070875A1, “Acne treatment compositions and methods of use” (priority 2006, published 2008).
Like-named read-outs stand apart in the source and are kept apart here.

Test system: P. acnes (MicroBiologics, ATCC #11827)
Assay: Minimal inhibitory concentration (MIC) against P. acnes, serial dilution in thioglycollate broth
Format: cell-based, Propionbacterium acnes
Details: for MIC: Cutibacterium acnes
Description: The objective of this example was to establish the minimal inhibitory concentration (MIC) of quercetin (Q), rosmarinic acid (RA), triclosan (T) and salicylic acid (SA) towards the bacterium P. acnes. Combinations of quercetin with rosmarinic acid 1:1 (Q+RA) and quercetin with salicylic acid (1:1) (Q+SA) were also tested.
The following methods were used in this example. P. acnes (MicroBiologics, ATCC #11827, batch #419697) was inoculated at 3 different dilutions and grown on blood agar plates for 3 days in anaerobic condition at 37 C. About 10 colonies were than suspended in thioglycollate broth in order to achieve the density equivalent to 0.5 McFarland standard. Test materials were dissolved in the thioglycollate broth at following concentrations:
The antimicrobial effect of the test samples was assayed by making serial dilutions for each material or the 1:1 combination thereof, followed by anaerobic incubation with bacterial agent in thioglycollate brothin a 96 well plate, at the initial density of 5×10^5 CFU/ml (0.001 McFarland standard). MIC was determined visually after 84 hours and confirmed by spectrophotometry at 405 nm with the BioRad 3550-UV microplate reader, using media with respective test materials without bacteria for background subtraction.

[1] = ATCC11827, anaerobic incubation in thioglycollate broth, 84 hours, visual, confirmed at 405 nm, read-out: MIC
[2] = anaerobic incubation in thioglycollate broth, 84 hours

MIC [1] | MIC (%) [2] | Structure (SMILES) | activity towards inhibiting P. acnes (result in words) | activity towards inhibiting P. acnes in the presence of salicylic acid (in the presence of salicylic acid (1:1), result in words) | MIC (ATCC11827, 84 h)
30 µg/mL | 0.003% | O=C(/C=C/c1ccc(O)c(O)c1)O[C@H](Cc1ccc(O)c(O)c1)C(=O)O [RA] | significant activity |  | 
> 2000 µg/mL | 2% | O=C(O)c1ccccc1O [SA, 2-Hydroxybenzoic acid, reference compound] |  |  | 
30 µg/mL | 0.003% | O=c1c(O)c(-c2ccc(O)c(O)c2)oc2cc(O)cc(O)c12 [Q, 2-(3,4-dihydroxyphenyl)-3,5,7-trihydroxy-4H-1-benzopyran-4-one] | significant activity | maintained activity | 

Structure (SMILES) | MIC [1] | MIC (%) [2] | activity towards inhibiting P. acnes (result in words) | activity towards inhibiting P. acnes in the presence of salicylic acid (in the presence of salicylic acid (1:1), result in words) | MIC (ATCC11827, 84 h)
Oc1cc(Cl)ccc1Oc1ccc(Cl)cc1Cl [T, triclosan, reference compound] |  | 0.4% |  |  | 400 µg/mL
